The values that follow come from patent EP2179993A1, “Sulfoxide substituted aniline pyrimidine derivatives as CDK inhibitors, their manufacture and use as medicine” (Bayer Schering Pharma Aktiengesellschaft, priority 2008, dated 2010).

The target of one experiment is T1, CDK1/CycB (Homo sapiens, UniProt P06493).
T1 construct: GST; purchased ProQinase GmbH, Freiburg; host or cells: baculovirus-infected Sf9 insect cells
Kind of experiment: CDK1/CycB kinase assay (33P-ATP incorporation into histone IIIS, filter strip scintillation). In kind it is biochemical. As to conditions: recombinant CDK1- and CycB-GST fusion proteins; 0,5 µM ATP; 10 min at 22°C; substrate Histon IIIS; read-out: CDK1/CycB (Assay 1) Konzentration der halbmaximalen Inhibition der Enzymaktivität, IC50. As to the method: Assay 1: CDK1/CycB Kinase Assay
Rekombinante CDK1- und CycB-GST-Fusionsproteine, gereinigt aus Bakulovirusinfizierten Insektenzellen (Sf9), wurden von ProQinase GmbH, Freiburg, gekauft. Das als Kinase-Substrat verwendet Histon IIIS ist über die Fa. Sigma käuflich zu erwerben.
CDK1/CycB (200 ng/Messpunkt) wurde für 10 min bei 22°C in Anwesenheit verschiedener Konzentrationen an Testsubstanzen (0 µM, sowie innerhalb des Bereiches 0,001 - 10 µM) in Assaypuffer [50 mM Tris/HCl pH8,0; 10 mM MgCl2; 0,1 mM Na ortho-Vanadat; 1,0 mM Dithiothreitol; 0,5 µM Adenosintrisphosphat (ATP); 10 µg/Messpunkt Histon IIIS; 0,2 µCi/Messpunkt ^33P-gamma ATP; 0,05% NP40; 1,25% Dimethylsulfoxid] inkubiert. Die Reaktion wurde durch Zugabe von EDTA-Lösung (250 mM; pH8,0; 15 µl/Messpunkt) gestoppt.
Von jedem Reaktionsansatz wurden 15 µl auf P30 Filterstreifen (Fa. Wallac) aufgetragen, und nicht-eingebautes ^33P-ATP wurde durch dreimaliges Waschen der Filterstreifen für je 10 min in 0,5%iger Phosphorsäure entfernt. Nach dem Trocknen der Filterstreifen für 1 Stunde bei 70°C wurden die Filterstreifen mit Szintillator-Streifen (MeltiLex™ A, Fa. Wallac) bedeckt und für 1 Stunde bei 90°C eingebrannt. Die Menge an eingebautem ^33P (Substratphosphorylierung) wurde durch Szintillationsmessung in einem Gamma-Strahlungsmessgerät (Wallac) bestimmt. […]

For a further experiment, the target named is T2, CDK2/CycE (Homo sapiens, UniProt P24941).
T2 construct: GST; purchased ProQinase GmbH, Freiburg; host or cells: baculovirus-infected Sf9 insect cells
Kind of experiment: CDK2/CycE kinase assay (33P-ATP incorporation into histone IIIS, filter strip scintillation). The experiment is classed as biochemical. As to conditions: recombinant CDK2- and CycE-GST fusion proteins; 0,5 µM ATP; 10 min at 22°C; substrate Histon IIIS; read-out: CDK2/CycE (Assay 2) Konzentration der halbmaximalen Inhibition der Enzymaktivität, IC50. As to the method:
Assay 2: CDK2/CycE Kinase Assay
Rekombinante CDK2- und CycE-GST-Fusionsproteine, gereinigt aus Bakulovirusinfizierten Insektenzellen (Sf9), wurden von ProQinase GmbH, Freiburg, gekauft. Histon IIIS, das als Kinase-Substrat verwendet wurde, wurde bei der Fa. Sigma gekauft.
CDK2/CycE (50 ng/Messpunkt) wurde für 10 min bei 22°C in Anwesenheit verschiedener Konzentrationen an Testsubstanzen (0 µM, sowie innerhalb des Bereiches 0,001 - 10 µM) in Assaypuffer [50 mM Tris/HCl pH8,0; 10 mM MgCl2; 0,1 mM Na ortho-Vanadat; 1,0 mM Dithiothreitol; 0,5 µM Adenosintrisphosphat (ATP); 10 µg/Messpunkt Histon IIIS; 0,2 µCi/Messpunkt ^33P-gamma ATP; 0,05% NP40; 1,25% Dimethylsulfoxid] inkubiert. Die Reaktion wurde durch Zugabe von EDTA-Lösung (250 mM; pH8,0; 15 µl/Messpunkt) gestoppt.
Von jedem Reaktionsansatz wurden 15 µl auf P30 Filterstreifen (Fa. Wallac) aufgetragen, und nicht-eingebautes ^33P-ATP wurde durch dreimaliges Waschen der Filterstreifen für je 10 min in 0,5%iger Phosphorsäure entfernt. Nach dem Trocknen der Filterstreifen für 1 Stunde bei 70°C wurden die Filterstreifen mit Szintillator-Streifen (MeItiLex™ A, Fa. Wallac) bedeckt und für 1 Stunde bei 90°C eingebrannt. Die Menge an eingebautem ^33P (Substratphosphorylierung) wurde durch Szintillationsmessung in einem Gamma-Strahlungsmessgerät (Wallac) bestimmt. […]

T1 sequence (P06493 whole entry): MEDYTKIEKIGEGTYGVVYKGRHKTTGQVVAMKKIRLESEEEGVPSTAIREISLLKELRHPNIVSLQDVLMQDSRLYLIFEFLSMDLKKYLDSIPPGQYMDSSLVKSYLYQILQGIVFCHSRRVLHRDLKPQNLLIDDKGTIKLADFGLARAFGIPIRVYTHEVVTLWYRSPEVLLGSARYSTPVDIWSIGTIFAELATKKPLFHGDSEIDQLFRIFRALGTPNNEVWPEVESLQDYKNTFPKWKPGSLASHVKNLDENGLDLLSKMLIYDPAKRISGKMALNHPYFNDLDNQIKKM
T1 sequence (P14635 whole entry partner): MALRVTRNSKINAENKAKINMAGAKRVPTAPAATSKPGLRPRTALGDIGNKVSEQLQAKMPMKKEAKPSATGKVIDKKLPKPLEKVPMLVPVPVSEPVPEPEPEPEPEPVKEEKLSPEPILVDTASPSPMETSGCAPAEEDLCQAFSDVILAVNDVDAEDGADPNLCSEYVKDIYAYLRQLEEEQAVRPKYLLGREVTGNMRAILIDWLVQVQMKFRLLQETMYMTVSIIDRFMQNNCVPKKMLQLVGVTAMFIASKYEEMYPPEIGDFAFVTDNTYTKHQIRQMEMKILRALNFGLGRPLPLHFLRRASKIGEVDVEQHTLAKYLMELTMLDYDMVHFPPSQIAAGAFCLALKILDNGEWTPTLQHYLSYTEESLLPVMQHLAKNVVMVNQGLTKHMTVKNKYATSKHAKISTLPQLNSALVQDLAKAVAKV

Consider `C[C@@H](Oc1nc(Nc2ccc([S+](C)[O-])cc2)ncc1C(F)(F)F)C(C)(C)O` (stereo partly drawn) [Beispiel 2, (R)-3-[2-(4-Methansulfinyl-phenylamino)-5-trifluormethyl-pyrimidin-4-yloxy]-2-methyl-butan-2-ol], for which the values for the IC50 on CDK1/CycB and on CDK2/CycE were 30 nM and 12 nM, respectively.

In the case of `C[C@@H](O)[C@@H](C)Oc1nc(Nc2ccc([S+](C)[O-])cc2)ncc1C(F)(F)F` (stereo partly drawn) [Beispiel 1, (2R,3R)-3-[2-(4-Methansulfinyl-phenylamino)-5-trifluormethyl-pyrimidin-4-yloxy]-butan-2-ol], the IC50 amounted to 7 nM on CDK1/CycB and 5 nM at CDK2/CycE.
